Source: ChEMBL document CHEMBL4725230, “Syntheses and pharmacokinetic evaluations of four metabolites of 2-(4-(2-((1H-benzo[d]imidazol-2-yl)thio)ethyl)piperazin-1-yl)-N-(6-methyl-2,4-bis-(methylthio)pyridin-3-yl)acetamide hydrochloride [K-604], an acyl-CoA:cholesterol O-acyltransferase-1 inhibitor” (Bioorg Med Chem, 2020)

Key:
[1] = Clearance in human liver microsomes assessed per mg protein for 5 mins in presence of NADPH by LC-MS/MS analysis; type: ADME, Microsome; details: read-out: CLH
Cytochrome P450 [2] = experiment: Drug metabolism in human liver microsomes assessed as Km for cytochrome p450-mediated 2-(4-(2-((1H-Benzo[d]imidazol-2-yl)thio)ethyl)piperazin-1-yl)-N-(6-methyl-4-(methylsulfinyl)-2-(methylthio)pyridin-3-yl)acetamide formation; type: ADME
Cytochrome P450 [3] = experiment: Drug metabolism in human liver microsomes assessed as Km for cytochrome p450-mediated 2-(4-(2-((1H-Benzo[d]imidazol-2-yl)thio)ethyl)piperazin-1-yl)-N-(6-methyl-2-(methyl-sulfinyl)-4-(methylthio)pyridin-3-yl)acetamide formation; type: ADME
Cytochrome P450 [4] = experiment: Drug metabolism in human liver microsomes assessed as Km for cytochrome p450-mediated 2-(4-(2-((1H-Benzo[d]imidazol-2-yl)sulfinyl)ethyl)piperazin-1-yl)-N-(6-methyl-2,4-bis(methylthio)pyridin-3-yl)acetamide formation; type: ADME
Cytochrome P450 [5] = experiment: Drug metabolism in human liver microsomes assessed as Km for cytochrome p450-mediated 2-(4-(2-((5-Hydroxy-1H-benzo[d]imidazol-2-yl)thio)ethyl)piperazin-1-yl)-N-(6-methyl-2,4-bis(methylthio)pyridin-3-yl)acetamide formation; type: ADME
Cytochrome P450 [6] = experiment: Drug metabolism in human liver microsomes assessed as Vmax for cytochrome p450-mediated 2-(4-(2-((1H-Benzo[d]imidazol-2-yl)thio)ethyl)piperazin-1-yl)-N-(6-methyl-4-(methylsulfinyl)-2-(methylthio)pyridin-3-yl)acetamide formation; type: ADME
Cytochrome P450 [7] = experiment: Drug metabolism in human liver microsomes assessed as Vmax for cytochrome p450-mediated 2-(4-(2-((1H-Benzo[d]imidazol-2-yl)thio)ethyl)piperazin-1-yl)-N-(6-methyl-2-(methyl-sulfinyl)-4-(methylthio)pyridin-3-yl)acetamide formation; type: ADME
Cytochrome P450 [8] = experiment: Drug metabolism in human liver microsomes assessed as Vmax for cytochrome p450-mediated 2-(4-(2-((1H-Benzo[d]imidazol-2-yl)sulfinyl)ethyl)piperazin-1-yl)-N-(6-methyl-2,4-bis(methylthio)pyridin-3-yl)acetamide formation; type: ADME
Cytochrome P450 [9] = experiment: Drug metabolism in human liver microsomes assessed as Vmax for cytochrome p450-mediated 2-(4-(2-((5-Hydroxy-1H-benzo[d]imidazol-2-yl)thio)ethyl)piperazin-1-yl)-N-(6-methyl-2,4-bis(methylthio)pyridin-3-yl)acetamide formation; type: ADME
[10] = Clearance in human liver microsomes assessed as 2-(4-(2-((1H-Benzo[d]imidazol-2-yl)thio)ethyl)piperazin-1-yl)-N-(6-methyl-4-(methylsulfinyl)-2-(methylthio)pyridin-3-yl)acetamide level per mg protein; type: ADME, Microsome
[11] = Clearance in human liver microsomes assessed as 2-(4-(2-((1H-Benzo[d]imidazol-2-yl)thio)ethyl)piperazin-1-yl)-N-(6-methyl-2-(methyl-sulfinyl)-4-(methylthio)pyridin-3-yl)acetamide level per mg protein; type: ADME, Microsome
[12] = Clearance in human liver microsomes assessed as 2-(4-(2-((1H-Benzo[d]imidazol-2-yl)sulfinyl)ethyl)piperazin-1-yl)-N-(6-methyl-2,4-bis(methylthio)pyridin-3-yl)acetamide level per mg protein; type: ADME, Microsome
[13] = Clearance in human liver microsomes assessed as 2-(4-(2-((5-Hydroxy-1H-benzo[d]imidazol-2-yl)thio)ethyl)piperazin-1-yl)-N-(6-methyl-2,4-bis(methylthio)pyridin-3-yl)acetamide level per mg protein; type: ADME, Microsome
Cytochrome P450 3A4 [14] = target: T1, Cytochrome P450 3A4 (Homo sapiens, UniProt P08684); experiment: Drug metabolism in human liver microsomes assessed as CYP3A4-mediated 2-(4-(2-((1H-Benzo[d]imidazol-2-yl)thio)ethyl)piperazin-1-yl)-N-(6-methyl-4-(methylsulfinyl)-2-(methylthio)pyridin-3-yl)acetamide formation; type: ADME
T1 sequence (P08684 whole entry): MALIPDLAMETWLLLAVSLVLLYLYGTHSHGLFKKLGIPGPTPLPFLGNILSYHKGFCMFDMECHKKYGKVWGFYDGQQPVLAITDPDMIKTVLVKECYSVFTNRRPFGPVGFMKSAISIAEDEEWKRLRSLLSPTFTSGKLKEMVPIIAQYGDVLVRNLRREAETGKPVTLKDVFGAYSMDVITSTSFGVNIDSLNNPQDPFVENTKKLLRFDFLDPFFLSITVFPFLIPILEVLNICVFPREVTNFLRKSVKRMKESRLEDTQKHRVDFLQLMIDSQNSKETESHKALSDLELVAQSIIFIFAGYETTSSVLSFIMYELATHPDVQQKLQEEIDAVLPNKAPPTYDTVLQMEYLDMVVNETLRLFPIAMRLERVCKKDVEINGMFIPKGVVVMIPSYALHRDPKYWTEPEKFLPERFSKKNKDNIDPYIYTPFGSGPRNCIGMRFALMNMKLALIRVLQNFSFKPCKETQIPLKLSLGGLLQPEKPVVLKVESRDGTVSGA

Cytochrome P450 3A4 [15] = target: T1, Cytochrome P450 3A4; experiment: Drug metabolism in human liver microsomes assessed as CYP3A4-mediated 2-(4-(2-((1H-Benzo[d]imidazol-2-yl)thio)ethyl)piperazin-1-yl)-N-(6-methyl-2-(methyl-sulfinyl)-4-(methylthio)pyridin-3-yl)acetamide formation; type: ADME
Cytochrome P450 3A4 [16] = target: T1, Cytochrome P450 3A4; experiment: Drug metabolism in human liver microsomes assessed as CYP3A4-mediated 2-(4-(2-((1H-Benzo[d]imidazol-2-yl)sulfinyl)ethyl)piperazin-1-yl)-N-(6-methyl-2,4-bis(methylthio)pyridin-3-yl)acetamide formation; type: ADME
Cytochrome P450 3A4 [17] = target: T1, Cytochrome P450 3A4; experiment: Drug metabolism in human liver microsomes assessed as CYP3A4-mediated 2-(4-(2-((5-Hydroxy-1H-benzo[d]imidazol-2-yl)thio)ethyl)piperazin-1-yl)-N-(6-methyl-2,4-bis(methylthio)pyridin-3-yl)acetamide formation; type: ADME
Cytochrome P450 3A5 [18] = target: T2, Cytochrome P450 3A5 (Homo sapiens, UniProt P20815); experiment: Drug metabolism in human liver microsomes assessed as CYP3A5-mediated 2-(4-(2-((1H-Benzo[d]imidazol-2-yl)thio)ethyl)piperazin-1-yl)-N-(6-methyl-4-(methylsulfinyl)-2-(methylthio)pyridin-3-yl)acetamide formation; type: ADME
T2 sequence (P20815 whole entry): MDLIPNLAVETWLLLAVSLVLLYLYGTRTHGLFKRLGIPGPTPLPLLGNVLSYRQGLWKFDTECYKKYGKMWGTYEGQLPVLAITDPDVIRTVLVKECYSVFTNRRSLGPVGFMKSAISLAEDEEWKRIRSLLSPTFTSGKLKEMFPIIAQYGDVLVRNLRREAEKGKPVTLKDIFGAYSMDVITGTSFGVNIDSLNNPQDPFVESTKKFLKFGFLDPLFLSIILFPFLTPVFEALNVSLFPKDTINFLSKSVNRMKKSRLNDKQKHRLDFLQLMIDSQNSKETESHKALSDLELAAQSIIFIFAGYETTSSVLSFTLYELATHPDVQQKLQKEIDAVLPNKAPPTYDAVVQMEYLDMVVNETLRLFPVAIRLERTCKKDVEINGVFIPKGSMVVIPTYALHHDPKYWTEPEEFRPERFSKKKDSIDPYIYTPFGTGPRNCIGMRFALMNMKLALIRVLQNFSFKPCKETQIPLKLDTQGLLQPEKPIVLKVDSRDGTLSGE

Cytochrome P450 3A5 [19] = target: T2, Cytochrome P450 3A5; experiment: Drug metabolism in human liver microsomes assessed as CYP3A5-mediated 2-(4-(2-((1H-Benzo[d]imidazol-2-yl)thio)ethyl)piperazin-1-yl)-N-(6-methyl-2-(methyl-sulfinyl)-4-(methylthio)pyridin-3-yl)acetamide formation; type: ADME
Cytochrome P450 3A5 [20] = target: T2, Cytochrome P450 3A5; experiment: Drug metabolism in human liver microsomes assessed as CYP3A5-mediated 2-(4-(2-((1H-Benzo[d]imidazol-2-yl)sulfinyl)ethyl)piperazin-1-yl)-N-(6-methyl-2,4-bis(methylthio)pyridin-3-yl)acetamide formation; type: ADME
Cytochrome P450 3A5 [21] = target: T2, Cytochrome P450 3A5; experiment: Drug metabolism in human liver microsomes assessed as CYP3A5-mediated 2-(4-(2-((5-Hydroxy-1H-benzo[d]imidazol-2-yl)thio)ethyl)piperazin-1-yl)-N-(6-methyl-2,4-bis(methylthio)pyridin-3-yl)acetamide formation; type: ADME
Cytochrome P450 2C9 [22] = target: T3, Cytochrome P450 2C9 (Homo sapiens, UniProt P11712); experiment: Drug metabolism in human liver microsomes assessed as CYP2C9-mediated 2-(4-(2-((1H-Benzo[d]imidazol-2-yl)thio)ethyl)piperazin-1-yl)-N-(6-methyl-4-(methylsulfinyl)-2-(methylthio)pyridin-3-yl)acetamide formation; type: ADME
T3 sequence (P11712 whole entry): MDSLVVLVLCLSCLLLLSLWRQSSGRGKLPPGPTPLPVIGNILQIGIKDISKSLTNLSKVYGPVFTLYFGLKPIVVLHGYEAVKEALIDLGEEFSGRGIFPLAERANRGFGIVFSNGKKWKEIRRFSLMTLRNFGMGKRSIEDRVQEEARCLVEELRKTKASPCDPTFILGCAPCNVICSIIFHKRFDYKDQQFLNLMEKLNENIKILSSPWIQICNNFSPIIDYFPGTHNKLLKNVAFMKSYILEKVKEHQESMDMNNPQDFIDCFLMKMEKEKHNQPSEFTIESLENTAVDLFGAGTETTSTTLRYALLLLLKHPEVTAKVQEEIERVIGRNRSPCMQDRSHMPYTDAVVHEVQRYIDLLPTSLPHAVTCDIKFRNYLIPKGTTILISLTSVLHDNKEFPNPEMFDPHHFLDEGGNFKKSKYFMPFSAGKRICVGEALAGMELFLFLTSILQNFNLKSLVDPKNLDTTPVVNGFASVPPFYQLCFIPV

Cytochrome P450 2C9 [23] = target: T3, Cytochrome P450 2C9; experiment: Drug metabolism in human liver microsomes assessed as CYP2C9-mediated 2-(4-(2-((1H-Benzo[d]imidazol-2-yl)thio)ethyl)piperazin-1-yl)-N-(6-methyl-2-(methyl-sulfinyl)-4-(methylthio)pyridin-3-yl)acetamide formation; type: ADME
Cytochrome P450 2C9 [24] = target: T3, Cytochrome P450 2C9; experiment: Drug metabolism in human liver microsomes assessed as CYP2C9-mediated 2-(4-(2-((1H-Benzo[d]imidazol-2-yl)sulfinyl)ethyl)piperazin-1-yl)-N-(6-methyl-2,4-bis(methylthio)pyridin-3-yl)acetamide formation; type: ADME
Cytochrome P450 2C9 [25] = target: T3, Cytochrome P450 2C9; experiment: Drug metabolism in human liver microsomes assessed as CYP2C9-mediated 2-(4-(2-((5-Hydroxy-1H-benzo[d]imidazol-2-yl)thio)ethyl)piperazin-1-yl)-N-(6-methyl-2,4-bis(methylthio)pyridin-3-yl)acetamide formation; type: ADME
Cytochrome P450 2D6 = Cytochrome P450 2D6 (Homo sapiens, UniProt P10635); experiment: Drug metabolism in human liver microsomes assessed as CYP2D6-mediated 2-(4-(2-((1H-Benzo[d]imidazol-2-yl)thio)ethyl)piperazin-1-yl)-N-(6-methyl-4-(methylsulfinyl)-2-(methylthio)pyridin-3-yl)acetamide formation; type: ADME
Cytochrome P450 2D6, sequence (P10635 whole entry): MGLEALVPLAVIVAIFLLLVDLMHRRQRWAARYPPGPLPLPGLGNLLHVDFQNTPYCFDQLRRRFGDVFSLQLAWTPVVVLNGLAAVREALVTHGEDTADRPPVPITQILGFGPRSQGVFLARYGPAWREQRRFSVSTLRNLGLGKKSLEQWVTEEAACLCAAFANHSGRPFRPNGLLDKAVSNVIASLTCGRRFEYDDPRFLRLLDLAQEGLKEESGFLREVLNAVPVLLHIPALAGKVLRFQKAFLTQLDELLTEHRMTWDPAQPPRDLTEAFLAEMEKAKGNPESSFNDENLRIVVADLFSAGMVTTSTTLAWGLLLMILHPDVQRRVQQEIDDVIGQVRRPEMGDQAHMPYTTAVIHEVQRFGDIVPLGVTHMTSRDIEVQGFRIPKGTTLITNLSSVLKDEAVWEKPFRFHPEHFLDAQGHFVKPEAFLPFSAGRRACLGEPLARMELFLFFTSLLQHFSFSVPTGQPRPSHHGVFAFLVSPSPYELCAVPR

Cytochrome P450 3A2 [26] = target: T4, Cytochrome P450 3A2 (Rattus norvegicus, UniProt P05183); experiment: Drug metabolism in male rat liver microsomes assessed as CYP3A2-mediated 2-(4-(2-((1H-Benzo[d]imidazol-2-yl)thio)ethyl)piperazin-1-yl)-N-(6-methyl-4-(methylsulfinyl)-2-(methylthio)pyridin-3-yl)acetamide formation; type: ADME
T4 sequence (P05183 whole entry): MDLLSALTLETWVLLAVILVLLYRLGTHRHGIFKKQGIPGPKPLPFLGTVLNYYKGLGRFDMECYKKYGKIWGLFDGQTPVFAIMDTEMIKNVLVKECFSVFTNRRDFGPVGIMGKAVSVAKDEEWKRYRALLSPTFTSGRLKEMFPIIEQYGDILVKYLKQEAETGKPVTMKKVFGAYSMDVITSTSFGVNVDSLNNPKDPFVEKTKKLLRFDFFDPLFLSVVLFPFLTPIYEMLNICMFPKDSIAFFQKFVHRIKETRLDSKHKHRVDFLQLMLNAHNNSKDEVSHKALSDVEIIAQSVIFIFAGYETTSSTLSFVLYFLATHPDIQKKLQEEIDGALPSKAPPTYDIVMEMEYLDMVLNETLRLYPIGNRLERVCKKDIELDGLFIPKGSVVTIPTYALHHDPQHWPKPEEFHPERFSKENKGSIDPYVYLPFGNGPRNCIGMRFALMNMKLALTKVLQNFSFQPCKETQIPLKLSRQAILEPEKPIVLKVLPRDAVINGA

Cytochrome P450 3A2 [27] = target: T4, Cytochrome P450 3A2; experiment: Drug metabolism in male rat liver microsomes assessed as CYP3A2-mediated 2-(4-(2-((1H-Benzo[d]imidazol-2-yl)thio)ethyl)piperazin-1-yl)-N-(6-methyl-2-(methyl-sulfinyl)-4-(methylthio)pyridin-3-yl)acetamide formation; type: ADME
[28] = Metabolic stability in female rat liver microsomes assessed as parent compound remaining; type: ADME, Microsome
Cytochrome P450 2C11 = target: T5, Cytochrome P450 2C11 (Rattus norvegicus, UniProt P08683); experiment: Drug metabolism in […] rat liver microsomes assessed as CYP2C11-mediated 2-(4-(2-((1H-Benzo[d]imidazol-2-yl)thio)ethyl)piperazin-1-yl)-N-(6-methyl-4-(methylsulfinyl)-2-(methylthio)pyridin-3-yl)acetamide formation; type: ADME
T5 sequence (P08683 whole entry): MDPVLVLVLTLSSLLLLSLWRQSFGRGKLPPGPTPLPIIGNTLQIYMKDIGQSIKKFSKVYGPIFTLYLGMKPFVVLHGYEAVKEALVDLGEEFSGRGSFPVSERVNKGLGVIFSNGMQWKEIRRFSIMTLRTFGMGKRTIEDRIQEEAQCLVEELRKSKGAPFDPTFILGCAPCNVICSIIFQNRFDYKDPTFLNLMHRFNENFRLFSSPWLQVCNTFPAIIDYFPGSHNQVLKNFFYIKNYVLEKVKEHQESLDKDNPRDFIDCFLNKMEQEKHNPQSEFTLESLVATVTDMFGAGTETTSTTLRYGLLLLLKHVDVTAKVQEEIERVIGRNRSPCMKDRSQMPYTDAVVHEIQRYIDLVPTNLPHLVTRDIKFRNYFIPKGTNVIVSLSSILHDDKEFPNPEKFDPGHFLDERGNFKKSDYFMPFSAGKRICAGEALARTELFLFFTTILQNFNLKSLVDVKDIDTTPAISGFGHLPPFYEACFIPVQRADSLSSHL

[29] = Metabolic stability in male rat liver microsomes assessed as assessed as parent compound remaining; type: ADME, Microsome
[30] = Metabolic stability in cynomolgus monkey plasma assessed as parent compound remaining formation at 10 mg/kg, administered into stomach using nasogastric catheter measured upto 360 mins by column-switching HPLC method; type: ADME, organism-based, Macaca fascicularis; details: in vivo, po, 6 h
[31] = Drug metabolism in cynomolgus monkey plasma assessed as 2-(4-(2-((1H-Benzo[d]imidazol-2-yl)thio)ethyl)piperazin-1-yl)-N-(6-methyl-4-(methylsulfinyl)-2-(methylthio)pyridin-3-yl)acetamide formation at 10 mg/kg, administered into stomach using nasogastric catheter measured upto 360 mins by column-switching HPLC method; type: ADME, organism-based, Macaca fascicularis; details: in vivo, po, 6 h
[32] = Drug metabolism in cynomolgus monkey plasma assessed as 2-(4-(2-((1H-Benzo[d]imidazol-2-yl)thio)ethyl)piperazin-1-yl)-N-(6-methyl-2-(methyl-sulfinyl)-4-(methylthio)pyridin-3-yl)acetamide formation at 10 mg/kg, administered into stomach using nasogastric catheter measured upto 360 mins by column-switching HPLC method; type: ADME, organism-based, Macaca fascicularis; details: in vivo, po, 6 h
[33] = Drug metabolism in cynomolgus monkey plasma assessed as 2-(4-(2-((5-Hydroxy-1H-benzo[d]imidazol-2-yl)thio)ethyl)piperazin-1-yl)-N-(6-methyl-2,4-bis(methylthio)pyridin-3-yl)acetamide formation at 10 mg/kg, administered into stomach using nasogastric catheter measured upto 360 mins by column-switching HPLC method; type: ADME, organism-based, Macaca fascicularis; details: in vivo, po, 6 h
[34] = Drug metabolism in cynomolgus monkey plasma assessed as 2-(4-(2-((1H-Benzo[d]imidazol-2-yl)sulfinyl)ethyl)piperazin-1-yl)-N-(6-methyl-2,4-bis(methylthio)pyridin-3-yl)acetamide formation at 10 mg/kg, administered into stomach using nasogastric catheter measured upto 360 mins by column-switching HPLC method; type: ADME, organism-based, Macaca fascicularis; details: in vivo, po, 6 h

microsomal CLint [1]: 720 µL/min/mg
Km (Cytochrome P450 [2]): 1.3 µM
Km (Cytochrome P450 [3]): 4.3 µM
Km (Cytochrome P450 [4]): 2.6 µM
Km (Cytochrome P450 [5]): 2 µM
Vmax (Cytochrome P450 [6]): 1773 pmol/min/mg
Vmax (Cytochrome P450 [7]): 363 pmol/min/mg
Vmax (Cytochrome P450 [8]): 558 pmol/min/mg
Vmax (Cytochrome P450 [9]): 343 pmol/min/mg
CLH [10]: 1353 µL/min
CLH [11]: 125 µL/min
CLH [12]: 219 µL/min
CLH [13]: 168 µL/min
Drug metabolism (Cytochrome P450 3A4 [14]): Metabolite_Detected
Drug metabolism (Cytochrome P450 3A4 [15]): Metabolite_Detected
Drug metabolism (Cytochrome P450 3A4 [16]): Metabolite_Detected
Drug metabolism (Cytochrome P450 3A4 [17]): Metabolite_Detected
Drug metabolism (Cytochrome P450 3A5 [18]): Metabolite_Detected
Drug metabolism (Cytochrome P450 3A5 [19]): Metabolite_Detected
Drug metabolism (Cytochrome P450 3A5 [20]): Metabolite_Detected
Drug metabolism (Cytochrome P450 3A5 [21]): Metabolite_Detected
Drug metabolism (Cytochrome P450 2C9 [22]): Metabolite_Notdetected
Drug metabolism (Cytochrome P450 2C9 [23]): Metabolite_Notdetected
Drug metabolism (Cytochrome P450 2C9 [24]): Metabolite_Notdetected
Drug metabolism (Cytochrome P450 2C9 [25]): Metabolite_Notdetected
Drug metabolism (Cytochrome P450 2D6): Metabolite_Detected
Drug metabolism (Cytochrome P450 3A2 [26]): Metabolite_Detected
Drug metabolism (Cytochrome P450 3A2 [27]): Metabolite_Detected
Stabilty [28]: 76.1%
Drug metabolism (Cytochrome P450 2C11): Metabolite_Notdetected
Stabilty [29]: 5.2%
Stabilty [30]: Stable
Drug metabolism [31]: Metabolite_Detected
Drug metabolism [32]: Metabolite_Notdetected
Drug metabolism [33]: Metabolite_Detected
Drug metabolism [34]: Metabolite_Detected
Compound: CSc1cc(C)nc(SC)c1NC(=O)CN1CCN(CCSc2nc3ccccc3[nH]2)CC1.Cl
